Laboratory results published in PubChem BioAssay (NCI).
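Step 1: Grow cells in 96-well plates. Step 2: Expose to compound for 48 hours at 5 concentrations. Step 3: Interpolate endpoints linearly; if unreached, use highest concentration. GI50: concentration for 50% inhibition of growth. TGI is the concentration that stops growth completely.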

system: MDA-MB-468 breast; experiment: NCI tumour cell line growth inhibition, 48 h

`Cc1c(Br)c(Br)c2c3c1nc(N1CCNCC1)n3CCC2` and `CC(C)(Oc1cccc(N2CCC[C@@H](C(=O)N(Cc3ccc(-c4cn[nH]c4)cc3)C3CC3)C2)c1)C(=O)N1CCNCC1` are within 1.5-fold of each other in GI50: 1.6 µM for the first, 2.23 µM for the second.

Going from `COc1cccc(N2C(=N)/C(=C3\Nc4ccccc4S3)CC2=O)c1` to `O=C1NC(=NCCc2ccccc2F)S/C1=C\c1ccc2ncccc2c1`, the GI50 falls from 26.2 µM to 2.67 µM (9.8-fold).

Compared with `N#Cc1ncc(-c2ccc(C(F)(F)F)cc2)c(NC2CCCCCC2)n1`, `Cc1cc(NS(=O)(=O)c2ccc(-c3cnc(C4CC4)o3)cc2)ccc1Cl` is 25-fold lower in GI50: 4.16 µM for the first, 0.165 µM for the second.

Going from `C=CCc1cc(O)ccc1O` to `Oc1ccc(/C=N/NC(=S)Nc2ccccc2)nc1`, the GI50 falls from 14 µM to 1.32 µM (11-fold).

Going from `CN(C)C/C=C/C(=O)Nc1ccc(C(=O)Nc2cccc(Nc3ncc(Cl)c(-c4c[nH]c5ccccc45)n3)c2)cc1` to `Cc1ccc(NC(=O)c2cc(/C=C/C(=O)NO)cc(C(F)(F)F)c2)cc1Nc1nccc(-c2cccnc2)n1`, the GI50 rises from 0.018 µM to 1.43 µM (79-fold).

Compared with `C#Cc1ccc(C(=O)NCc2ccc(/C=C/C(=O)c3nccn3C)cc2)cc1`, `CCN(CC)CCOc1ccc(/C(=C(\C)Cc2ccc(OC)cc2)c2ccc(O)cc2)cc1` is 1.7-fold lower in GI50: 2.6 µM for the first, 1.54 µM for the second.

Going from `Fc1ccc(C2CC(c3cccc(Nc4ccncc4)c3)=NN2c2ccccc2)cc1` (centres undefined) to `Cc1ccc2c(-c3ccnc(Nc4cccc(C(F)(F)F)c4)n3)c(-c3ccccc3)nn2n1`, the GI50 falls from 1.54 µM to 0.509 µM (3-fold).

Compared with `Cc1ccc(/C=C(/C#N)n2nnc3cccc(F)c32)cc1`, `COc1ccc(-c2cc(-c3ccc(Cl)cc3)nc(SCCCC(=O)NO)n2)cc1OC` is 1.7-fold higher in GI50: 0.702 µM for the first, 1.17 µM for the second.

`CC(C)N(CCNc1nc(C(Cl)(Cl)Cl)nc2cc(Cl)ccc12)C(C)C` and `COc1cc(C2C=C(C)N=C3SC=C(C)N32)cc(OC)c1OC` (centres undefined) are within 1.5-fold of each other in GI50: 1.38 µM for the first, 1.12 µM for the second.

`COc1cc(C(=O)/C=C/c2cccnc2Nc2ccc(Cl)cc2)cc(OC)c1OC` and `CCN(CC)Cc1cc(Nc2ccnc3ccc(OC)cc23)ccc1O` are within 1.5-fold of each other in GI50: 1.29 µM for the first, 1.67 µM for the second.

Going from `Nc1ncc(-c2ccc3ncnc(N4CCc5cc(F)c(Cl)cc54)c3c2)cc1C=O` to `CCN1C[C@@H](C)n2c(c(O)c3c(=O)n(Cc4ccc(F)c(Cl)c4)nc(C(=O)NC)c32)C1=O`, the GI50 rises from 0.306 µM to 2.51 µM (8.2-fold).

First: Cn1ccc(S(=O)(=O)N2CCC[C@H](Nc3nccc(-c4c(-c5cccc(O)c5)nc5occn45)n3)C2)n1
Second: Cn1cc(Nc2nccc(-c3ccc4c(c3)CN(C3COC3)CC[C@H]4NC(=O)c3cn(C(C)(C)C)nn3)n2)cn1
The GI50 of the first is 4.8-fold lower: 8.15 µM for the first, 39 µM for the second.

Going from `C/C=C(/C)C(=O)OC1C=C(CO)C(=O)C(OC(=O)C2(C)OC2C)C1C(C)C` (centres undefined) to `CC(C)=CCc1c2c(c(O)c3c1O[C@]14C(=C[C@@H]5C[C@H]1C(C)(C)O[C@@]4(C/C=C(/C)C(=O)O)C5=O)C3=O)C=CC(C)(C)O2`, the GI50 rises from 1.46 µM to 15.8 µM (11-fold).

First: N#Cc1c(-c2ccccc2)nc(SCC(O)CN2CCOCC2)nc1N1CCOCC1 (centres undefined)
Second: CN1CCC(=C(c2ccc(Cl)cc2)c2ccccn2)CC1
The GI50 of the first is 18-fold lower: 2.16 µM for the first, 38.9 µM for the second.

First: CN1C(=O)[C@@H](CC2CCCC2)N(C2CCCC2)c2nc(Nc3cc(Cl)c(O)c(Cl)c3)ncc21
Second: CC(=O)NC(CCc1ccc(Cl)c(Cl)c1)c1cccc(O)c(=O)c1 (centres undefined)
The GI50 of the first is 43-fold higher: 19.1 µM for the first, 0.442 µM for the second.

Compared with `CCNCCS(=O)(=O)NC[C@@]1(c2ccccc2)SC(NC(=O)C(C)(C)C)=NN1C(=O)C(C)(C)C`, `CCOC(=O)C(Cc1ccccc1)n1c(O)c(/C=N/c2ncc(Cc3ccc(Cl)cc3Cl)s2)sc1=S` (centres undefined) is higher in GI50: < 0.01 µM for the first, 2.48 µM for the second.

First: Cc1cc2c(C(C)C)c(O)c(O)c(/C=N/O)c2c(O)c1-c1c(C)cc2c(C(C)C)c(O)c(O)c(/C=N/O)c2c1O
Second: Oc1c(Cl)cc(Cl)c(Cl)c1Cc1c(O)c(Cl)cc(Cl)c1Cl
The GI50 of the first is 3.1-fold higher: 2.05 µM for the first, 0.661 µM for the second.

Going from `COC(=O)C1C(=O)C(C(=O)OC)C2CCC1N2C` (centres undefined) to `CC[C@]1(O)CC2CN(CCc3c([nH]c4ccccc34)C(C(=O)OC)(c3cc4c(cc3OC)N(C=O)[C@H]3[C@@](O)(C(=O)OC)[C@H](OC(C)=O)[C@]5(CC)[C@@H]6C[C@@H]6CN6CC[C@]43[C@@H]65)C2)C1` (some centres undefined), the GI50 falls from 69.5 µM to < 0.00325 µM.

`CCN(CC)CCOc1ccc2c(-c3ccccc3)c(-c3ccc(OC)cc3)c(=O)oc2c1` and `CCCCNC(=O)CC1=C(C)/C(=C/c2[nH]c(-c3ccc[nH]3)cc2OC)N=C1C` are within 1.5-fold of each other in GI50: 2.58 µM for the first, 2.04 µM for the second.

Compared with `O=C(Nc1nc2ccc(OC(F)(F)F)cc2s1)c1ccc(F)cc1`, `Cc1ncnc2c1ccn2[C@@H]1C[C@H](Oc2cc(C(F)F)c(F)c3c2CNCC3)[C@@H](O)[C@H]1O` is higher in GI50: 2.36 µM for the first, > 100 µM for the second.

Compared with `Cc1c(Br)c(Br)c2c3c1nc(N1CCNCC1)n3CCC2`, `CC(C)(Oc1cccc(N2CCC[C@@H](C(=O)N(Cc3ccc(-c4cn[nH]c4)cc3)C3CC3)C2)c1)C(=O)N1CCNCC1` is 2.1-fold higher in TGI: 3.31 µM for the first, 6.8 µM for the second.

`COc1cccc(N2C(=N)/C(=C3\Nc4ccccc4S3)CC2=O)c1` and `O=C1NC(=NCCc2ccccc2F)S/C1=C\c1ccc2ncccc2c1` cannot be ordered by TGI: > 100 µM for the first, > 18.6 µM for the second.

Going from `N#Cc1ncc(-c2ccc(C(F)(F)F)cc2)c(NC2CCCCCC2)n1` to `Cc1cc(NS(=O)(=O)c2ccc(-c3cnc(C4CC4)o3)cc2)ccc1Cl`, the TGI falls from > 100 µM to 12.7 µM.

Compared with `C=CCc1cc(O)ccc1O`, `Oc1ccc(/C=N/NC(=S)Nc2ccccc2)nc1` is 7.4-fold lower in TGI: 32.4 µM for the first, 4.4 µM for the second.

Compared with `CN(C)C/C=C/C(=O)Nc1ccc(C(=O)Nc2cccc(Nc3ncc(Cl)c(-c4c[nH]c5ccccc45)n3)c2)cc1`, `Cc1ccc(NC(=O)c2cc(/C=C/C(=O)NO)cc(C(F)(F)F)c2)cc1Nc1nccc(-c2cccnc2)n1` is 92-fold higher in TGI: 0.043 µM for the first, 3.94 µM for the second.

First: C#Cc1ccc(C(=O)NCc2ccc(/C=C/C(=O)c3nccn3C)cc2)cc1
Second: CCN(CC)CCOc1ccc(/C(=C(\C)Cc2ccc(OC)cc2)c2ccc(O)cc2)cc1
The TGI of the first is 2.9-fold higher: 8.76 µM for the first, 3.05 µM for the second.

`Fc1ccc(C2CC(c3cccc(Nc4ccncc4)c3)=NN2c2ccccc2)cc1` (centres undefined) and `Cc1ccc2c(-c3ccnc(Nc4cccc(C(F)(F)F)c4)n3)c(-c3ccccc3)nn2n1` are within 1.5-fold of each other in TGI: 3.37 µM for the first, 4.58 µM for the second.

`Cc1ccc(/C=C(/C#N)n2nnc3cccc(F)c32)cc1` and `COc1ccc(-c2cc(-c3ccc(Cl)cc3)nc(SCCCC(=O)NO)n2)cc1OC` are within 1.5-fold of each other in TGI: 6.3 µM for the first, 4.27 µM for the second.

`CC(C)N(CCNc1nc(C(Cl)(Cl)Cl)nc2cc(Cl)ccc12)C(C)C` and `COc1cc(C2C=C(C)N=C3SC=C(C)N32)cc(OC)c1OC` (centres undefined) are within 1.5-fold of each other in TGI: 2.82 µM for the first, 2.67 µM for the second.

First: COc1cc(C(=O)/C=C/c2cccnc2Nc2ccc(Cl)cc2)cc(OC)c1OC
Second: CCN(CC)Cc1cc(Nc2ccnc3ccc(OC)cc23)ccc1O
The TGI of the first is 1.7-fold lower: 2.67 µM for the first, 4.47 µM for the second.

First: Nc1ncc(-c2ccc3ncnc(N4CCc5cc(F)c(Cl)cc54)c3c2)cc1C=O
Second: CCN1C[C@@H](C)n2c(c(O)c3c(=O)n(Cc4ccc(F)c(Cl)c4)nc(C(=O)NC)c32)C1=O
The TGI of the first is 5-fold lower: 1.63 µM for the first, 8.18 µM for the second.

First: Cn1ccc(S(=O)(=O)N2CCC[C@H](Nc3nccc(-c4c(-c5cccc(O)c5)nc5occn45)n3)C2)n1
Second: Cn1cc(Nc2nccc(-c3ccc4c(c3)CN(C3COC3)CC[C@H]4NC(=O)c3cn(C(C)(C)C)nn3)n2)cn1
The TGI of the first is lower: 31.9 µM for the first, > 100 µM for the second.

First: C/C=C(/C)C(=O)OC1C=C(CO)C(=O)C(OC(=O)C2(C)OC2C)C1C(C)C (centres undefined)
Second: CC(C)=CCc1c2c(c(O)c3c1O[C@]14C(=C[C@@H]5C[C@H]1C(C)(C)O[C@@]4(C/C=C(/C)C(=O)O)C5=O)C3=O)C=CC(C)(C)O2
The TGI of the first is 10-fold lower: 3.46 µM for the first, 35.5 µM for the second.

First: N#Cc1c(-c2ccccc2)nc(SCC(O)CN2CCOCC2)nc1N1CCOCC1 (centres undefined)
Second: CN1CCC(=C(c2ccc(Cl)cc2)c2ccccn2)CC1
The TGI of the first is lower: 21.5 µM for the first, > 100 µM for the second.

Compared with `CN1C(=O)[C@@H](CC2CCCC2)N(C2CCCC2)c2nc(Nc3cc(Cl)c(O)c(Cl)c3)ncc21`, `CC(=O)NC(CCc1ccc(Cl)c(Cl)c1)c1cccc(O)c(=O)c1` (centres undefined) is 22-fold lower in TGI: 89.9 µM for the first, 4.07 µM for the second.

`Cc1cc2c(C(C)C)c(O)c(O)c(/C=N/O)c2c(O)c1-c1c(C)cc2c(C(C)C)c(O)c(O)c(/C=N/O)c2c1O` and `Oc1c(Cl)cc(Cl)c(Cl)c1Cc1c(O)c(Cl)cc(Cl)c1Cl` are within 1.5-fold of each other in TGI: 6.44 µM for the first, 8.45 µM for the second.

Compared with `COC(=O)C1C(=O)C(C(=O)OC)C2CCC1N2C` (centres undefined), `CC[C@]1(O)CC2CN(CCc3c([nH]c4ccccc34)C(C(=O)OC)(c3cc4c(cc3OC)N(C=O)[C@H]3[C@@](O)(C(=O)OC)[C@H](OC(C)=O)[C@]5(CC)[C@@H]6C[C@@H]6CN6CC[C@]43[C@@H]65)C2)C1` (some centres undefined) is lower in TGI: > 100 µM for the first, < 0.00325 µM for the second.

`CCN(CC)CCOc1ccc2c(-c3ccccc3)c(-c3ccc(OC)cc3)c(=O)oc2c1` and `CCOC(=O)C(Cc1ccccc1)n1c(O)c(/C=N/c2ncc(Cc3ccc(Cl)cc3Cl)s2)sc1=S` (centres undefined) are within 1.5-fold of each other in TGI: 8.73 µM for the first, 7.35 µM for the second.

`CCCCNC(=O)CC1=C(C)/C(=C/c2[nH]c(-c3ccc[nH]3)cc2OC)N=C1C` and `O=C(Nc1nc2ccc(OC(F)(F)F)cc2s1)c1ccc(F)cc1` are within 1.5-fold of each other in TGI: 7.5 µM for the first, 7.36 µM for the second.

`Cc1ncnc2c1ccn2[C@@H]1C[C@H](Oc2cc(C(F)F)c(F)c3c2CNCC3)[C@@H](O)[C@H]1O` was tested, and the TGI was > 100 µM.
